Results reported in PubChem BioAssay AID1549 (Sanford-Burnham Center for Chemical Genomics, 2009).
Active and inactive are the calls of the source. The rule behind the calls is not given here.

Target: Influenza A virus M2 proton channel (A/TW/4845/1999 H1N1)
Assay: M2 proton channel binding, NMR based, influenza A virus H1N1 strain (AID 1549)
Conditions: NMR binding screen, M2 protein

SMILES: O=C(O)c1ccc2c(c1)OCO2
- Kd: > 4 mM (inactive)

SMILES: O=C1Cn2c(nc3ccccc32)N1c1ccccc1F
- Kd: > 4 mM (inactive)

SMILES: Cc1ccc(/C=C2/NC(=S)NC2=O)s1
- Kd: > 4 mM (inactive)

SMILES: O=C1CC(c2c[nH]c3ccccc23)C(=O)N1 (stereo unspecified)
- Kd: > 4 mM (inactive)

SMILES: NC(=O)c1ccsc1NC(=O)c1ccco1
- Kd: > 4 mM (inactive)

SMILES: CSc1ncc(C(=O)O)n1Cc1ccccc1
- Kd: > 4 mM (inactive)

SMILES: CCN(CC)S(=O)(=O)c1ccc(F)cc1
- Kd: > 4 mM (inactive)

SMILES: O=C1CNC(=O)N1c1cccc(Cl)c1
- Kd: > 4 mM (inactive)

SMILES: CNC(=O)N1CCN(C(=O)NC)CC1
- Kd: > 4 mM (inactive)

SMILES: COc1cccc(OC)c1C(=O)N1CCOCC1
- Kd: > 4 mM (inactive)

SMILES: Nc1cccc(OC(F)(F)F)c1
- Kd: > 4 mM (inactive)

SMILES: COc1cc([C@@H]2c3cc4c(cc3[C@H](O)[C@H]3COC(=O)[C@H]23)OCO4)cc(OC)c1OC
- Kd: > 4 mM (inactive)

SMILES: COc1ccc(-c2noc(-c3ccco3)n2)cc1OC
- Kd: > 4 mM (inactive)

SMILES: Nc1cc(=O)[nH]c(SCC(=O)NCc2ccccc2)n1
- Kd: > 4 mM (inactive)

SMILES: Cc1ccnc(NS(=O)(=O)c2ccccc2)n1
- Kd: > 4 mM (inactive)

SMILES: c1ccc(C2NCCc3[nH]cnc32)cc1 (stereo unspecified)
- Kd: > 4 mM (inactive)

SMILES: O=C(Nc1ccc2c(c1)OCCO2)c1ccncc1
- Kd: > 4 mM (inactive)

SMILES: CCOC(=O)c1c(C)cc(O)c(C)c1O
- Kd: > 4 mM (inactive)

SMILES: O=C(CSc1ccnc(=O)[nH]1)NCc1ccco1
- Kd: > 4 mM (inactive)

SMILES: COCC(=O)NC1CC(C)(C)NC(C)(C)C1
- Kd: > 4 mM (inactive)

SMILES: OCC1COc2ccccc2C1 (stereo unspecified)
- Kd: > 4 mM (inactive)

SMILES: NC(=O)NC(=O)Nc1ccc(Cl)cc1
- Kd: > 4 mM (inactive)

SMILES: O=C(O)C1CC(=O)N(Cc2ccc(F)cc2)C1 (stereo unspecified)
- Kd: > 4 mM (inactive)

SMILES: CC(=O)N1CC2(C)CN(C(C)=O)CC(C)(C1)C2
- Kd: > 4 mM (inactive)

SMILES: C[C@H]1[C@H](C)CC[C@]2(C(=O)O)CC[C@]3(C)C(=CCC4[C@@]5(C)C[C@@H](O)[C@H](O)[C@@](C)(CO)C5[C@H](O)C[C@]43C)[C@H]12 (stereo partly specified)
- Kd: > 4 mM (inactive)

SMILES: CN1CN/C(=N\[N+](=O)[O-])N(c2ccccc2)C1
- Kd: > 4 mM (inactive)

SMILES: O=C(/C=C/c1ccccc1)c1ccc(O)cc1
- Kd: > 4 mM (inactive)

SMILES: CC(NC(=O)c1cccnc1)c1ccc2c(c1)OCO2 (stereo unspecified)
- Kd: > 4 mM (inactive)

SMILES: CC(=O)Oc1ccc(N2C(=O)C3C4C=CC(O4)C3C2=O)cc1 (stereo unspecified)
- Kd: > 4 mM (inactive)

SMILES: O=C(NCc1cccnc1)c1ccccn1
- Kd: > 4 mM (inactive)

SMILES: CC1(C)CC2C1CCC1(C)OC2(C)CCC1O (stereo unspecified)
- Kd: > 4 mM (inactive)

SMILES: C/C=C/COc1nc2c(c(=O)n(C)c(=O)n2C)n1C
- Kd: > 4 mM (inactive)

SMILES: N#Cc1c[nH]n2c(=O)cc(Cc3ccccc3)nc12
- Kd: > 4 mM (inactive)

SMILES: CSc1ccc(/C=N/n2c(C)nnc2C)cc1
- Kd: > 4 mM (inactive)

SMILES: Cc1cc(C)c(C#N)c(N2CCCC2)n1
- Kd: > 4 mM (inactive)

SMILES: CC(=O)c1c(O)n(C)c(=S)n(C)c1=O
- Kd: > 4 mM (inactive)

SMILES: CC(=O)N1CCn2c3c(c(=O)c4cc(C)ccc42)CCC31 (stereo unspecified)
- Kd: > 4 mM (inactive)

SMILES: CC(=O)C1=C(O)C(=O)NC1c1ccccc1 (stereo unspecified)
- Kd: > 4 mM (inactive)

SMILES: CNC(=O)c1cccc(NC(=S)NC)c1
- Kd: > 4 mM (inactive)

SMILES: CN1CCC(NC(=O)c2ccccc2[N+](=O)[O-])CC1
- Kd: > 4 mM (inactive)

SMILES: O=c1[nH]c(=S)c2c(n1-c1ccccc1)CCC2
- Kd: > 4 mM (inactive)

SMILES: NC(CC(=O)O)C(=O)Nc1ccc(Cl)cc1 (stereo unspecified)
- Kd: > 4 mM (inactive)

SMILES: Cc1nc(-c2ccc(C(=O)N3CCOCC3)cc2)cs1
- Kd: > 4 mM (inactive)

SMILES: CCn1c2ccccc2c2nn(C)c(=N)nc21
- Kd: > 4 mM (inactive)

SMILES: O=C(Nc1ccc(N2CCOCC2)cc1)C1CC1
- Kd: > 4 mM (inactive)

SMILES: Cc1nn2c3ccccc3nc2n(Cc2ccccc2)c1=O
- Kd: > 4 mM (inactive)
